Measured values: the RepoRT retention time repository

Assay: Waters ACQUITY UPLC BEH C18, 50 × 2.1 mm, 1.7 µm, 30 °C, 0.3 mL/min, estimated dead time 0.37 min; A: water + 0.3% formic acid; B: acetonitrile; gradient (min/%B) 0.5/5 3.5/20 5.5/25 7/57 8/90
Conditions: stereoisomer not certain

Compound	LC retention time [min]
CC(C)(C)NCC(O)COc1cccc2c1CCC(=O)N2 (stereo unspecified)	2.65
CC12Cc3cn[nH]c3C(O)C1CCC1C2CCC2(C)C1CCC2(C)O (stereo unspecified)	6.7
CCC1(c2ccc(N)cc2)CCC(=O)NC1=O (stereo unspecified)	2.2
CC12CCC(=O)C=C1C=CC1C2CCC2(C)C1CCC21CCC(=O)O1 (stereo unspecified)	7.63
CN(C)C(=O)Oc1cc(OC(=O)N(C)C)cc(C(O)CNC(C)(C)C)c1 (stereo unspecified)	4.59
CC(C)(C)NCC(O)COc1nsnc1N1CCOCC1 (stereo unspecified)	3.62
COCCc1ccc(OCC(O)CNC(C)C)cc1 (stereo unspecified)	3.81
OC(c1ccccc1)(c1ccccc1)C1CCCCN1 (stereo unspecified)	4.75
NC(=O)CN1CC(c2ccccc2)CC1=O (stereo unspecified)	3.86
CNC(C)(C)Cc1ccccc1	3.14
CC(C)NCC(O)c1ccc(NS(C)(=O)=O)cc1 (stereo unspecified)	1.58
CCC(C)CC(C)N (stereo unspecified)	2.87
CCN(CC)C(C)C(=O)c1ccccc1 (stereo unspecified)	2.73
O=C(O)C(c1ccccc1)C1CCCCN1 (stereo unspecified)	3.25
CC(C)=CCN1CCC2(C)c3cc(O)ccc3CC1C2C (stereo unspecified)	5.07
O=C(O)CS(=O)C(c1ccccc1)c1ccccc1 (stereo unspecified)	6.69
CC(C)NC1CCn2c(=O)[nH]c3cccc(c32)C1O (stereo unspecified)	1.43
CN1CCC23c4c5ccc(O)c4OC2C(=O)CCC3(O)C1C5 (stereo unspecified)	1.21
CNC(C)Cc1ccc2c(c1)OCO2 (stereo unspecified)	2.73
CC1NCCOC1c1ccccc1 (stereo unspecified)	2.51
C=CCc1ccccc1OCC(O)CNC(C)C (stereo unspecified)	5.93
Cc1ccccc1CC(C)N (stereo unspecified)	3.25
CCOC(=O)C1(c2ccccc2)CCN(C)CC1	4.43
CCC(C(=O)OCCN1CCOC(c2ccccc2)C1C)c1ccccc1 (stereo unspecified)	7.17
C#CC1(O)CCC2C3C(C)CC4=C(CCC(=O)C4)C3CCC21C (stereo unspecified)	7.51

Compound	LC retention time [min]
CC(Cc1ccccc1)N(C)Cc1ccccc1 (stereo unspecified)	5.59
C#CCN(C)C(C)Cc1ccccc1 (stereo unspecified)	3.38
CC(Cc1ccccc1)NCCn1cnc2c1c(=O)n(C)c(=O)n2C (stereo unspecified)	4.01
CN1C2CCC1C(C(=O)O)C(OC(=O)c1ccccc1)C2 (stereo unspecified)	3.31
CC(C)NCC(O)COc1cccc2ccccc12 (stereo unspecified)	5.78
CCN(CC)C(=O)c1cccnc1	2.02
CC1C(c2ccccc2)OCCN1C (stereo unspecified)	2.55
O=C1NC(=NC2CC2)OC1c1ccccc1 (stereo unspecified)	4.84
C#CC1(O)CCC2C3CCC4=Cc5oncc5CC4(C)C3CCC21C (stereo unspecified)	8.13
CC(C)(C)NCC(O)c1cc(O)cc(O)c1 (stereo unspecified)	1.44
CNC(C)Cc1ccccc1 (stereo unspecified)	2.59
CCC(=O)C(CC(C)N(C)C)(c1ccccc1)c1ccccc1 (stereo unspecified)	7.03
O=C1CC2OCC=C3CN4CCC56c7ccccc7N1C5C2C3CC46 (stereo unspecified)	3.01
CNC(C)Cc1ccccc1OC (stereo unspecified)	3.3
CC(Cc1ccccc1)N(C)C (stereo unspecified)	2.76
CC(C)NCC(O)COc1cccc2[nH]ccc12 (stereo unspecified)	2.74
C1CCc2nnnn2CC1	2.4
CNC(C)CC1CCCCC1 (stereo unspecified)	4.4
CNC(C)C(O)c1ccc(O)cc1 (stereo unspecified)	0.65
CNC(C)Cc1ccc(O)cc1 (stereo unspecified)	1.24
OCc1cc(C(O)CNCCCCCCOCCCCc2ccccc2)ccc1O (stereo unspecified)	7.12
CC1(O)CCC2C3CCC4=CC(=O)CCC4=C3C=CC21C (stereo unspecified)	7.12
COC(=O)C(c1ccccc1)C1CCCCN1 (stereo unspecified)	3.9
CC(N)Cc1ccc2c(c1)OCO2 (stereo unspecified)	2.5
COC12CCC3(CC1C(C)(O)C(C)(C)C)C1Cc4ccc(O)c5c4C3(CCN1CC1CC1)C2O5 (stereo unspecified)	6.55

Compound	LC retention time [min]
CC(Cc1ccccc1)N(C)Cc1ccco1 (stereo unspecified)	4.46
CCN(CC)C(=O)Nc1ccc(OCC(O)CNC(C)(C)C)c(C(C)=O)c1 (stereo unspecified)	4.46
CC(Cc1ccccc1)NC(C#N)c1ccccc1 (stereo unspecified)	7.8
CCC(=C(c1ccccc1)c1ccc(OCCN(C)C)cc1)c1ccccc1	7.76
CC(C)(C)NCC(O)COc1cccc2c1CCCC2=O (stereo unspecified)	4
CC(=O)Oc1c(C)cc(OCC(O)CNC(C)C)c(C)c1C (stereo unspecified)	5.62
CC12CCC(=O)C=C1CCC1C2C(=O)CC2(C)C1CCC2(O)C(=O)CO (stereo unspecified)	6.31
COc1ccc2c3c1OC1C(=O)CCC4(O)C(C2)N(C)CCC314 (stereo unspecified)	2.47
Nc1nc(N)c(-c2ccccc2)s1	1.84
Nc1nc(N)c2nc(-c3ccccc3)c(N)nc2n1	3
CC(C)NCC(O)COc1ccc(CCOCC2CC2)cc1 (stereo unspecified)	6.11
CC(CCc1ccccc1)NCC(O)c1ccc(O)c(C(N)=O)c1 (stereo unspecified)	5.1
CC(C)(N)Cc1ccccc1	2.91
CC=CC(=O)N(CC)C(CC)C(=O)N(C)C (stereo unspecified)	4.55
Cc1cccc(Nc2ccncc2S(=O)(=O)NC(=O)NC(C)C)c1	6.02
CC(C)NCC(O)COc1ccc(COCCOC(C)C)cc1 (stereo unspecified)	5.03
O=C(c1ccc(OCCN2CCCCC2)cc1)c1c(-c2ccc(O)cc2)sc2cc(O)ccc12	6.58
CC(C)c1c(CN(C)C(C)Cc2ccccc2)n(C)n(-c2ccccc2)c1=O (stereo unspecified)	6.48
Cc1cc(C)cc(NC(=O)Cc2ccc(OC(C)(C)C(=O)O)cc2)c1	7.59
COC(=O)C1CC2=CC(=O)CCC2(C)C23OC2CC2(C)C(CCC24CCC(=O)O4)C13 (stereo unspecified)	6.75
CCCC(=O)Nc1ccc(OCC(O)CNC(C)C)c(C(C)=O)c1 (stereo unspecified)	3.71
CC12Cc3c([nH][nH]c3=O)CC1CCC1C2CCC2(C)C1CCC2(C)O (stereo unspecified)	6.7
C#CC1(O)CCC2C3CCC4=CC(=O)CCC4=C3C=CC21CC (stereo unspecified)	7.47
CC=CC(=O)N(CCC)C(CC)C(=O)N(C)C (stereo unspecified)	5.92
CC(C)(C)NCC(O)c1ccc(O)c(CO)c1 (stereo unspecified)	1.45

Compound	LC retention time [min]
NC(CC(O)COc1cccc2ccccc12)=NO (stereo unspecified)	4.76
C=CCOc1ccccc1OCC(O)CNC(C)C (stereo unspecified)	4.66
CC(Cc1ccccc1)[n+]1cc(N=C([O-])Nc2ccccc2)on1 (stereo unspecified)	7.25
CCCC(Cc1ccccc1)N1CCCC1 (stereo unspecified)	5.09
CC(Cc1ccc(O)cc1)NCC(O)c1cc(O)cc(O)c1 (stereo unspecified)	2.23
O=C(CS(=O)C(c1ccccc1)c1ccccc1)NO (stereo unspecified)	5.7
CNC(C)C(O)c1ccccc1 (stereo unspecified)	2
COc1ccc2c3c1OC1C(O)C=CC4C(C2)N(C)CCC341 (stereo unspecified)	2.15
CCCN(CCC)S(=O)(=O)c1ccc(C(=O)O)cc1	7.56
CC(=O)Nc1nnc(S(N)(=O)=O)s1	1.78
COc1ccccc1OCCNCC(O)COc1cccc2[nH]c3ccccc3c12 (stereo unspecified)	6.81
CC(Cc1ccccc1)NCCC#N (stereo unspecified)	2.77
CC(N)CCCC(C)(C)O (stereo unspecified)	1.29
NC(=O)c1ncn(C2OC(CO)C(O)C2O)c1N (stereo unspecified)	0.58
CCN(CC)C(=O)c1ccc(O)c(OC)c1	4.77
CCCCNc1cc(C(=O)O)cc(S(N)(=O)=O)c1Oc1ccccc1	7.49
CC(=O)OCC(=O)C12N=C(C)OC1CC1C3CCC4=CC(=O)C=CC4(C)C3C(O)CC12C (stereo unspecified)	7.2
CNC(C)CCC=C(C)C (stereo unspecified)	3.6
CC(CN1CCOCC1)C(C(=O)N1CCCC1)(c1ccccc1)c1ccccc1 (stereo unspecified)	6.97
CC12C=CC(=O)C=C1CCC1C2C(O)CC2(C)C1CCC2(O)C(=O)CO (stereo unspecified)	6.15
Cc1cc2c(OCC(CNC(C)(C)C)OC(=O)c3ccccc3)cccc2[nH]1 (stereo unspecified)	6.95
CCNC1C2CCC(C2)C1c1ccccc1 (stereo unspecified)	4.97
COc1ccc(CC(C)NCC(O)c2ccc(O)c(NC=O)c2)cc1 (stereo unspecified)	3.94
CC(N)Cc1ccc(O)cc1 (stereo unspecified)	1.17
CC(N)Cc1ccccc1 (stereo unspecified)	2.37

Compound	LC retention time [min]
CC(C(O)c1ccccc1)N(C)C (stereo unspecified)	2.2
CC1(C)OC2CC3C4CCC5=CC(=O)C=CC5(C)C4C(O)CC3(C)C2(C(=O)CO)O1 (stereo unspecified)	6.98
CC12CCC(=O)C=C1CCC1C2C(O)CC2(C)C1CCC2(O)C(=O)CO (stereo unspecified)	6.23
N=C1NC(=O)C(c2ccccc2)O1 (stereo unspecified)	2.7
CC(C)NCC(O)COc1ccc(CC(N)=O)cc1 (stereo unspecified)	1.62
CC(C)(C#N)c1cc(Cn2cncn2)cc(C(C)(C)C#N)c1	6.91
CN1CCC23c4c5ccc(O)c4OC2C(O)C=CC3C1C5 (stereo unspecified)	1.1
c1ccc(CN2CCNCC2)cc1	0.67
CC(N)C(O)c1ccccc1 (stereo unspecified)	1.7
COC(=O)CCc1ccc(OCC(O)CNC(C)C)cc1 (stereo unspecified)	4.31
CCCCCC(C)N (stereo unspecified)	3.17
Cc1ccc(CC(C)N)cc1 (stereo unspecified)	3.45
CNCC(C)c1ccccc1 (stereo unspecified)	2.57
CC1CC2C(C(O)CC3(C)C2CCC3(O)C(=O)CO)C2(C)C=CC(=O)C=C12 (stereo unspecified)	6.78
CC12CCC3C(CCC4=CC(=O)C=CC43C)C1CCC(=O)O2 (stereo unspecified)	6.56
CCNCC(O)c1cccc(O)c1 (stereo unspecified)	0.92
CCC1(O)CCC2C3CCC4=CC(=O)CCC4=C3C=CC21CC (stereo unspecified)	7.79
NC(=O)CS(=O)C(c1ccccc1)c1ccccc1 (stereo unspecified)	6.01
CC12C=CC(=O)C=C1CCC1C2C(=O)CC2(C)C1CCC2(O)C(=O)CO (stereo unspecified)	6.12
CCCC1OC2CC3C4CCC5=CC(=O)C=CC5(C)C4C(O)CC3(C)C2(C(=O)CO)O1 (stereo unspecified)	7.46
CN1CCC23c4c5ccc(O)c4OC2C(=O)CCC3C1C5 (stereo unspecified)	1.48
